We go through two substances from US11078201B2, “Substituted isoindolin-1-ones and 2,3-dihydro-1H-pyrrol[3,4-c]pyridin-1-ones as HPK1 antagonists” (Nimbus Saturn, Inc., priority 2019, dated 2021).

The target of the assay is HPK1 (Homo sapiens (Human), UniProt Q92918). Briefly: HPK1 biochemical enzyme assay (microfluidic mobility shift assay). The conditions noted are these: 1.5 nM HPK1, ATP 1 mM final, 60 min at RT, Caliper EZ Reader; read-out: HPK1 1000UMATP caliper IC50. Here is the method: HPK1 biochemical enzyme assay: HPK1 enzyme inhibition was measured using a microfluidic mobility shift assay. […] Test compounds were titrated in ten point curves (top final assay concentration […]), and preincubated with enzyme/substrate mix for 30 min prior to initiation of the reaction by addition of ATP (1 mM final concentration) and substrate (1 μM final concentration; Carna Biosciences) diluted in assay buffer supplemented by MgCl2 (final assay concentration of 5 mM). Following 60 min incubation at RT, the reaction was terminated by addition of 60 µl/well termination buffer (Carna Biosciences) and signal determination using a Caliper EZ Reader (Perkin Elmer, UK).
Chain of HPK1 (Q92918 whole entry): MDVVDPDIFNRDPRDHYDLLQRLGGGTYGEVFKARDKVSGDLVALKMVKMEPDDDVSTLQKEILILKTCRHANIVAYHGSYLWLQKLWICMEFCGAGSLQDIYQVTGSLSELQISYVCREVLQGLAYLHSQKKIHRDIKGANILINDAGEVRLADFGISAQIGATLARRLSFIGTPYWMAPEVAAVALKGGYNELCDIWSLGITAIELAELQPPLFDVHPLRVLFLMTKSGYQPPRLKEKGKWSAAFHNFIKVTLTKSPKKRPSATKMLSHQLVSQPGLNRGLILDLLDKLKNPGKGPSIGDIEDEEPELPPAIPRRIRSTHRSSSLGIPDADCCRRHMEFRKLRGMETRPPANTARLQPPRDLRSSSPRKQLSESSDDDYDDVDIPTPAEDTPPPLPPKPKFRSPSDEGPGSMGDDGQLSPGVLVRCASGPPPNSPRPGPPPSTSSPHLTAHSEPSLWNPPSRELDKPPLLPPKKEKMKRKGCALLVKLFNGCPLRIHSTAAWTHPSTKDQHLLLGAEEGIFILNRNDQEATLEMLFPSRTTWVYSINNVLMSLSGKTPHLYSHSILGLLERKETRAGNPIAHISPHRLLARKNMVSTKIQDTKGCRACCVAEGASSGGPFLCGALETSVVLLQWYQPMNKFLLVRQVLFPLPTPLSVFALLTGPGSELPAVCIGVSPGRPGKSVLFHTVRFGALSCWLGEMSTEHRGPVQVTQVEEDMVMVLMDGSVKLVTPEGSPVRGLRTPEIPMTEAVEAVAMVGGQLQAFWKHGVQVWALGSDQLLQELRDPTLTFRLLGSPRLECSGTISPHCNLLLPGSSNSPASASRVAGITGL
The compound numbers correspond to the compound numbers in Table 1.

Some results are limits rather than exact numbers.

For the substance “4-(8-fluoro-7- methyl-imidazo[1,2- a]pyridin-3- yl)-7-[[5- (morpholino- methyl)-2- pyridyl]amino] isoindolin-1-one [I-468]”, the half-maximal inhibitory concentration (IC50) was less than 100 nM.

With “4-[7-(hydroxymeth- yl)imidazo[1,2- a]pyridin-3- yl]-7-[(5- morpholino-2- pyridyl)amino] isoindolin-1-one [I-196]”, the IC50 was less than 100 nM.
